# The supplement of paper PMC10307832
# What was measured:
# Assay in all cases: relative viability (nuclei count vs DMSO), 5 days (fraction); higher = more cells survive
# [1] = compound: C1=CC2=NC=CN=C2C=C1/C=C/3\C(=O)NC(=O)S3 + CS(=O)(=O)CCNCc1ccc(-c2ccc3ncnc(Nc4ccc(OCc5cccc(F)c5)c(Cl)c4)c3c2)o1 [Lapatinib] (partner 2 µM)
# In short: (§1)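 Lung cancer cell lines in 1536-well plates were dosed by pin tool the day after seeding, either with one drug alone or with a fixed anchor-drug dose plus five library-drug doses (not always all listed) in √10 steps. After 5 days, cells were fixed and their nuclei stained in one step (final 0.05% Triton X-100, 1% formaldehyde, 1 ug/ml Hoechst), then counted on 4× images. Relative viability is the nuclei count in treated wells divided by that in vehicle wells. Values are medians of duplicate plates.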
# [2] = compound: CCN1CCN(c2ccc(Nc3cc(N(C)C(=O)Nc4c(Cl)c(OC)cc(OC)c4Cl)ncn3)cc2)CC1 [BGJ398] + CS(=O)(=O)CCNCc1ccc(-c2ccc3ncnc(Nc4ccc(OCc5cccc(F)c5)c(Cl)c4)c3c2)o1 [Lapatinib] (partner 2 µM)
# In short: as §1
# [3] = compound: C1=CC2=NC=CN=C2C=C1/C=C/3\C(=O)NC(=O)S3 + CS(=O)(=O)N1CCN(Cc2cc3nc(-c4cccc5[nH]ncc45)nc(N4CCOCC4)c3s2)CC1 [Pictilisib] (partner 1 µM)
# In short: as §1
# [4] = compound: CCN1CCN(c2ccc(Nc3cc(N(C)C(=O)Nc4c(Cl)c(OC)cc(OC)c4Cl)ncn3)cc2)CC1 [BGJ398] + Cc1nc(NC(=O)N2CCC[C@H]2C(N)=O)sc1-c1ccnc(C(C)(C)C(F)(F)F)c1 [Alpelisib] (partner 2 µM)
# In short: as §1
Cell Line,relative viability ([1]; first compound 0.02 µM),relative viability ([1]; first compound 0.06325 µM),relative viability ([1]; first compound 0.2 µM),relative viability ([1]; first compound 0.6325 µM),relative viability ([1]; first compound 2 µM),relative viability ([2]; first compound 0.01 µM),relative viability ([2]; first compound 0.03162 µM),relative viability ([2]; first compound 0.1 µM),relative viability ([2]; first compound 0.3162 µM),relative viability ([2]; first compound 1 µM),relative viability ([3]; first compound 0.02 µM),relative viability ([3]; first compound 0.06325 µM),relative viability ([3]; first compound 0.2 µM),relative viability ([3]; first compound 0.6325 µM),relative viability ([3]; first compound 2 µM),relative viability ([4]; first compound 0.01 µM),relative viability ([4]; first compound 0.03162 µM),relative viability ([4]; first compound 0.1 µM),relative viability ([4]; first compound 0.3162 µM),relative viability ([4]; first compound 1 µM)
HCC-44,0.961,1.09,0.975,0.993,0.793,0.973,1.01,1.01,1.04,0.993,0.615,0.563,0.593,0.552,0.514,0.8,0.761,0.763,0.856,0.815
HCC-827,0.217,0.247,0.209,0.215,0.233,0.244,–,0.163,0.173,0.2,1.13,0.938,0.996,0.845,0.969,0.821,–,1.1,0.962,1.05
NCI-H2347,0.886,0.88,1,0.79,0.852,0.913,1.02,0.944,0.926,0.893,0.706,0.609,0.748,0.527,0.757,1.01,1.04,1.01,1.13,1.08
PC-14,0.326,0.316,0.284,0.348,0.24,0.282,0.255,0.352,0.251,0.31,0.636,0.75,0.735,0.652,0.531,0.824,0.845,0.98,0.958,0.938
NCI-H1651,0.793,0.899,1.05,0.718,0.685,0.796,0.897,0.962,0.693,0.676,0.547,0.574,0.598,0.462,0.472,1.04,0.952,0.961,0.918,0.939
HARA,0.668,0.984,0.997,0.633,0.31,0.67,0.531,0.472,0.362,0.217,0.44,0.485,0.365,0.348,0.31,0.784,0.635,0.752,0.817,0.787
NCI-H1650,0.728,0.725,0.937,0.709,0.72,0.608,0.828,0.367,0.32,0.234,0.562,0.531,0.594,0.553,0.656,–,–,–,–,–
NCI-H1395,1.13,1.06,1.46,0.935,0.963,1.1,1.75,0.823,0.569,0.476,0.669,0.596,0.786,0.564,0.512,0.982,1.02,0.994,0.719,0.604
LU99A,0.976,1.06,1.07,0.854,0.645,0.935,0.896,1.07,0.913,0.85,0.33,0.365,0.317,0.341,0.245,0.532,0.49,0.534,0.487,0.411
NCI-H1355,0.811,0.929,1.05,0.919,0.766,0.936,1.05,1.01,0.95,0.644,0.274,0.411,0.499,0.459,0.364,0.71,0.828,0.9,0.837,0.823
HCC-78,0.701,0.729,0.91,0.554,0.168,0.568,1.04,1,0.707,0.581,0.267,0.202,0.246,0.206,0.169,0.274,0.311,0.378,0.366,0.338
NCI-H1563,0.876,0.854,0.898,0.867,0.873,0.926,1.01,0.761,0.721,0.669,0.663,0.659,0.691,0.635,0.634,0.858,0.96,0.802,0.778,0.677
HCC-15,0.84,0.87,0.881,0.792,0.84,0.854,0.855,0.82,0.969,0.974,0.765,0.787,0.86,0.665,0.754,0.88,0.909,0.976,0.91,1.02
EKVX,0.215,0.18,0.251,0.207,0.146,0.178,0.199,0.204,0.201,0.169,0.355,0.384,0.42,0.422,0.375,0.798,0.665,0.95,0.842,0.977
NCI-H2087,0.859,1.24,0.941,0.98,0.931,0.951,0.975,1.09,1.17,0.885,0.77,1.11,0.913,0.798,0.995,0.99,1.17,1.05,1.19,1.18
LK-2,1.01,0.992,0.934,0.825,0.481,0.887,0.754,0.488,0.352,0.26,0.678,0.587,0.596,0.497,0.392,0.813,0.936,0.557,0.381,0.311
NCI-H1437,0.791,0.825,0.806,0.715,0.572,0.829,0.762,0.905,0.729,0.644,0.441,0.482,0.434,0.347,0.317,0.96,0.989,0.955,0.991,0.972

Cell Line,relative viability ([1]; first compound 0.02 µM),relative viability ([1]; first compound 0.06325 µM),relative viability ([1]; first compound 0.2 µM),relative viability ([1]; first compound 0.6325 µM),relative viability ([1]; first compound 2 µM),relative viability ([2]; first compound 0.01 µM),relative viability ([2]; first compound 0.03162 µM),relative viability ([2]; first compound 0.1 µM),relative viability ([2]; first compound 0.3162 µM),relative viability ([2]; first compound 1 µM),relative viability ([3]; first compound 0.02 µM),relative viability ([3]; first compound 0.06325 µM),relative viability ([3]; first compound 0.2 µM),relative viability ([3]; first compound 0.6325 µM),relative viability ([3]; first compound 2 µM),relative viability ([4]; first compound 0.01 µM),relative viability ([4]; first compound 0.03162 µM),relative viability ([4]; first compound 0.1 µM),relative viability ([4]; first compound 0.3162 µM),relative viability ([4]; first compound 1 µM)
COR-L23,0.832,1.31,0.921,0.771,0.923,0.887,0.903,1.15,0.992,0.908,0.784,1.01,0.78,0.717,0.453,0.755,0.872,0.686,0.843,0.824
ABC-1,1.06,0.754,1.18,1,1.02,1.07,1.06,1.16,1.23,1.22,0.676,0.67,0.721,0.673,0.576,0.96,1.04,1.03,1.15,0.836
NCI-H838,1.06,1.09,0.969,0.827,0.707,0.755,0.867,0.914,0.623,0.413,0.395,0.446,0.429,0.369,0.322,0.84,0.955,0.968,0.895,0.732
A549,0.893,1.04,1.04,0.9,0.874,0.885,0.99,0.952,0.919,0.819,0.518,0.646,0.453,0.555,0.464,0.782,0.864,0.847,0.635,0.872
A-427,1.03,1.04,1.07,0.994,1.08,1.07,1.01,1.05,0.938,0.949,0.711,0.685,0.788,0.675,0.679,1.08,1.07,0.944,0.848,0.662
NCI-H1792,0.948,0.851,0.839,0.953,0.554,0.928,0.874,0.999,0.909,0.756,0.26,0.16,0.341,0.214,0.296,0.634,0.755,0.898,0.706,0.456
LCLC-97TM1,0.751,1.12,1.73,0.817,0.27,0.525,0.745,0.901,0.979,0.868,0.186,0.185,0.21,0.141,0.178,0.233,0.269,0.231,0.214,0.265
NCI-H1703,1.06,1.29,1.07,0.946,0.89,0.988,1.32,1.04,1.05,1.36,0.241,0.318,0.187,0.243,0.232,0.331,0.394,0.348,0.332,0.359
LCLC-103H,–,–,–,–,–,–,–,–,–,–,0.61,0.768,0.706,0.539,0.531,1.03,0.954,0.991,0.975,0.778
PC-3 [JPC-3],0.481,0.559,0.454,0.439,0.441,0.44,–,0.412,0.478,0.348,0.687,0.881,0.594,0.65,0.8,1.05,–,1.04,0.948,0.973
BEN,0.624,0.754,0.817,0.608,0.505,0.608,0.828,0.7,0.656,0.671,0.54,0.622,0.613,0.496,0.556,0.896,1.2,0.993,0.923,0.759
NCI-H1666,0.468,0.51,0.693,0.643,0.499,0.656,0.704,0.508,0.7,0.255,0.286,0.39,0.403,0.534,0.327,1.01,1.08,1.01,0.922,0.909
LC-2-ad,0.927,1.04,0.949,0.924,0.797,0.937,1.02,1,0.978,0.912,0.465,0.533,0.478,0.411,0.335,0.926,0.871,0.924,0.968,0.915
SK-LU-1,0.834,0.977,0.891,1.01,0.693,0.878,1.07,0.979,0.702,0.945,0.703,0.695,0.583,0.577,0.506,0.939,0.885,1.02,0.971,0.796
ChaGo-K-1,–,–,–,–,–,–,–,–,–,–,0.886,1.26,1.07,0.665,0.621,–,–,–,–,–
COR-L 105,0.332,0.343,0.368,0.335,0.289,0.379,0.303,0.329,0.386,0.382,0.396,0.435,0.377,0.398,0.337,0.919,0.956,0.979,1.05,1.06
NCI-H441,–,–,–,–,–,–,–,–,–,–,0.453,0.48,0.447,0.573,0.477,0.775,0.707,0.644,0.73,0.593
